Reference: US6559159B2, “Kappa opioid receptor ligands” (Research Triangle Institute, priority 2001, dated 2003)

Key:
delta opioid receptor [1] = biological target: T1, delta opioid receptor (Cavia porcellus, UniProt A0A286XTF2); experiment: Inhibition of SNC-80-stimulated [35S]GTPγS binding in guinea pig caudate; type: biochemical; details: 50% attenuation of SNC80 (10 μM)-stimulated [35S]GTP-γ-S binding, ± SD, read-out: Apparent Functional Ki SNC-80
T1 construct: as measured in guinea pig caudate membranes; from tissue; host or cells: guinea pig caudate membranes

mu opioid receptor [2] = biological target: T2, mu opioid receptor (Homo sapiens, UniProt P35372); experiment: Radioligand competitive binding, [3H]DAMGO; details: for Ki: radioligand binding, mu, ± SD
delta opioid receptor [3] = biological target: T3, delta opioid receptor (Homo sapiens, UniProt P41143); experiment: Radioligand competitive binding, [3H]DADLE; details: for Ki: delta, ± SD
kappa opioid receptor [4] = biological target: T4, kappa opioid receptor (Homo sapiens, UniProt P41145); experiment: Radioligand competitive binding, [3H]U69,593; details: for Ki: radioligand binding, kappa, ± SD; for delta/kappa selectivity ratio (binding) / mu/kappa selectivity ratio (binding): column head not printed in Table 1
mu opioid receptor [5] = biological target: mu opioid receptor (Cavia porcellus, UniProt A0ACM8Q262); experiment: Inhibition of DAMGO-stimulated [35S]GTPγS binding in guinea pig caudate; type: biochemical; details: 50% attenuation of DAMGO (10 μM)-stimulated [35S]GTP-γ-S binding, ± SD, read-out: Apparent Functional Ki DAMGO
kappa opioid receptor [6] = biological target: T5, kappa opioid receptor (Cavia porcellus, UniProt P41144); experiment: Inhibition of U69,593-stimulated [35S]GTPγS binding in guinea pig caudate; type: biochemical; details: for Ki: 50% attenuation of U69,593 (10 μM)-stimulated [35S]GTP-γ-S binding, ± SD, read-out: Apparent Functional Ki U69,593; for δ/κ / μ/κ: ratio of apparent functional Ki
T5 construct: as measured in guinea pig caudate membranes; from tissue; host or cells: guinea pig caudate membranes

delta opioid receptor [7] = biological target: T3, delta opioid receptor; experiment: Inhibition of SNC-80-stimulated [35S]GTPγS binding in cloned human opioid receptors; type: biochemical; design: expressed in transfected cells; details: 50% attenuation of SNC80 (10 μM)-stimulated [35S]GTP-γ-S binding, ± SD, read-out: Apparent Functional Ki SNC-80
kappa opioid receptor [8] = biological target: T4, kappa opioid receptor; experiment: Inhibition of U69,593-stimulated [35S]GTPγS binding in cloned human opioid receptors; type: biochemical; design: expressed in transfected cells
mu opioid receptor [9] = biological target: T2, mu opioid receptor; experiment: Inhibition of DAMGO-stimulated [35S]GTPγS binding in cloned human opioid receptors; type: biochemical; design: expressed in transfected cells; details: 50% attenuation of DAMGO (10 μM)-stimulated [35S]GTP-γ-S binding, ± SD, read-out: Apparent Functional Ki DAMGO
[10] = ratio of apparent functional Ki, cloned human receptors

Q: Which Ki (delta opioid receptor [1]) does the source give for `Oc1ccc2c3c1O[C@H]1c4[nH]c5c(c4C[C@@]4(O)[C@@H](C2)N(CC2CC2)CC[C@]314)C[C@@]1(O)[C@H]2Cc3ccc(O)c4c3[C@@]1(CCN2CC1CC1)[C@H]5O4` [6, nor-BNI, norbinaltorphimine] here?
A: Its Ki is 0.086 ± 0.0072 µM.

Q: How did the Ki (mu opioid receptor [2]) turn out when `C[C@@H]1CN(CCCc2ccccc2)[C@H]2C[C@H](NC(=O)CCCN(C)C)C[C@]1(c1cccc(O)c1)C2` [Compound 13, 4-(dimethylamino)-N-[(1R,4S,5S,7R)-5-(3-hydroxyphenyl)-4-methyl-2-(3-phenylpropyl)-2-azabicyclo[3.3.1]non-7-yl]butanamide] was run?
A: Its Ki is 0.057 ± 0.0054 µM.

Q: And the Ki (delta opioid receptor [3])?
A: The Ki was 1.46 ± 0.113 µM.

Q: And the Ki (kappa opioid receptor [4])?
A: Its Ki is 0.0119 ± 0.00065 µM.

Q: And the “delta/kappa selectivity ratio (binding)” value (kappa opioid receptor [4]; ratio of binding Ki)?
A: The value was 122.

Q: And the “mu/kappa selectivity ratio (binding)” value (kappa opioid receptor [4]; ratio of binding Ki)?
A: The value was 5.

Q: For `CC1C2CCCC1(c1cccc(O)c1)CCN2CCc1ccccc1` (stereo not drawn) [Compound 10, N-phenethyl-9β-methyl-5-(3-hydroxyphenyl)morphan, reference compound], which Ki (mu opioid receptor [2]) is on record?
A: Its Ki is 0.00311 µM.

Q: What about the Ki (mu opioid receptor [5]) of the same compound?
A: Its Ki is 0.000338 ± 2.8e-05 µM.

Q: And the Ki (delta opioid receptor [3])?
A: The Ki was 0.272 ± 0.03 µM.

Q: What about the Ki (kappa opioid receptor [4]) of the same compound?
A: Its Ki is 0.0145 ± 0.00099 µM.

Q: And the “delta/kappa selectivity ratio (binding)” value (kappa opioid receptor [4]; ratio of binding Ki)?
A: The value was 19.

Q: And the “mu/kappa selectivity ratio (binding)” value (kappa opioid receptor [4]; ratio of binding Ki)?
A: The value was 0.21.

Q: What about the Ki (delta opioid receptor [1]) of the same compound?
A: The Ki was 0.0126 ± 0.00101 µM.

Q: And the Ki (kappa opioid receptor [6])?
A: The Ki was 0.00134 ± 8.4e-05 µM.

Q: And the δ/κ (kappa opioid receptor [6])?
A: Its δ/κ is 9.4.

Q: And the μ/κ (kappa opioid receptor [6])?
A: Its μ/κ is 0.25.

Q: What does the source list for `C[C@@H]1CN(CCCc2ccccc2)[C@H]2C[C@H](NC(=O)CCN3CCCCC3)C[C@]1(c1cccc(O)c1)C2` [Compound 12, (−)-N-[(1R,4S,5S, 7R)-5-(3-hydroxy)phenyl-4-methyl-2-(3-phenylpropyl)-2-azabicyclo[3.3.1]non-7-yl]-3-(1-piperidinyl)propanamide]?
A: affinity for the mu receptor lower than compound 10 (mu opioid receptor [2]; binding Ki of 12 relative to 10): ~50 fold; Ki (mu opioid receptor [2]): 0.147 µM; Ki (mu opioid receptor [5]): 0.0336 ± 0.0104 µM; Ki (delta opioid receptor [3]): > 3.4 µM; affinity for the delta receptor (in words) (delta opioid receptor [3]; within the testing parameters): no affinity; Ki (kappa opioid receptor [4]): 0.0043 µM; delta/kappa selectivity profile (binding, text) (kappa opioid receptor [4]; ratio of binding Ki): > 790 fold; delta/kappa selectivity ratio (binding) (kappa opioid receptor [4]; ratio of binding Ki): >790; mu/kappa selectivity ratio (binding) (kappa opioid receptor [4]; ratio of binding Ki): 34; Ki (delta opioid receptor [7]): > 0.1 µM; Ki (kappa opioid receptor [8]; cloned human opioid receptors, 50% attenuation of U69,593 (10 μM)-stimulated [35S]GTP-γ-S binding, ± SD, read-out: Apparent Functional Ki U69,593): 0.00056 ± 8e-05 µM; δ/κ (kappa opioid receptor [8]; [10]): >178; μ/κ (kappa opioid receptor [8]; [10]): 64; Ki (delta opioid receptor [1]): > 0.3 µM; Ki (mu opioid receptor [9]): 0.0358 ± 0.0068 µM; Ki (kappa opioid receptor [6]): 0.00048 ± 6e-05 µM; δ/κ (kappa opioid receptor [6]): >625; μ/κ (kappa opioid receptor [6]): 70
